Laboratory results taken from DBAASP.
Values after ≈ are worked out from the molar mass of the structure shown. One block for each molecule: values may come before it.

How the values were obtained:
Assay in all cases: ≥ marks a high value that may be exact or a test limit, other limits are often not marked, values filed in µg/mL are converted to µM
[1] = system: Bacillus subtilis ATCC 9372
[2] = system: Bacillus anthracis Sterne 34F2
[3] = system: Burkholderia thailandensis
[4] = system: Escherichia coli CCARM 1238
[5] = system: Aspergillus flavus KCTC 6905
[6] = system: Salmonella typhimurium CCARM 8013
[7] = system: Staphylococcus aureus CCARM 3114
[8] = system: Aspergillus fumigatus KCTC 6145
[9] = system: Pseudomonas aeruginosa KCTC 1637
[10] = system: Pseudomonas aeruginosa 3547
[11] = system: Candida albicans KCTC 7270
[12] = system: Bacillus subtilis KCTC 1998
[13] = system: Proteus vulgaris KCTC 2433
[14] = system: Staphylococcus epidermidis KCTC 3096
[15] = system: Pseudomonas aeruginosa 4007
[16] = system: Escherichia coli CCARM 1229
[17] = system: Aspergillus awamori KCTC 6915
[18] = system: Listeria monocytogenes ATCC 19115
[19] = system: Salmonella typhimurium CCARM 8009
[20] = system: Staphylococcus aureus CCARM 3089
[21] = system: Staphylococcus epidermidis ATCC 12228
[22] = system: Staphylococcus aureus PBEL
[23] = system: Bacillus subtilis KCTC 1918
[24] = system: Salmonella typhimurium KCTC 1926
[25] = system: Pseudomonas aeruginosa ATCC 15692
[26] = system: Trichosporon beigelii KCTC 7707
[27] = system: Aspergillus parasiticus KCTC 6598
[28] = system: Listeria monocytogenes KCTC 3710
[29] = system: Escherichia coli ATCC 25922
[30] = system: Escherichia coli BW25113
[31] = system: Escherichia coli JW3596
[32] = system: Escherichia coli F470
[33] = system: Escherichia coli F2513
[34] = system: Escherichia coli JW3605
[35] = system: Micrococcus luteus ATCC 9341
[36] = system: Klebsiella pneumoniae 1625
[37] = system: Pseudomonas aeruginosa 5106
[38] = system: Escherichia coli 170
[39] = system: Enterobacter cloacae 2524
[40] = system: Klebsiella pneumoniae 913
[41] = system: Enterobacter cloacae 6780
[42] = system: Escherichia coli 4530
[43] = system: Pseudomonas aeruginosa 4677
[44] = system: Acinetobacter baumannii

SMILES: CC[C@H](C)[C@@H]1NC(=O)CNC(=O)[C@H](CO)NC(=O)[C@H](CC(C)C)NC(=O)[C@H](CC(C)C)NC(=O)[C@H](CC(=O)O)NC(=O)[C@@H](NC(=O)[C@@H](NC(=O)[C@H](C)N)[C@@H](C)O)CSSC[C@@H]2NC(=O)[C@H](Cc3ccc(O)cc3)NC(=O)CNC(=O)CNC(=O)[C@H](CCCN=C(N)N)NC(=O)[C@H](CC(N)=O)NC(=O)CNC(=O)[C@H](CCCN=C(N)N)NC(=O)[C@H](Cc3ccccc3)NC(=O)[C@H](C(C)C)NC(=O)[C@@H]3CSSC[C@@H](C(=O)N[C@@H](CCCN=C(N)N)C(=O)N[C@@H](CC(N)=O)C(=O)O)NC(=O)[C@H](C(C)C)NC(=O)[C@H](CSSC[C@H](NC(=O)[C@H](C)NC(=O)[C@H](CO)NC(=O)[C@H](Cc4cnc[nH]4)NC(=O)[C@H](CCC(N)=O)NC(=O)[C@H](C(C)C)NC(=O)CNC1=O)C(=O)N[C@@H](C)C(=O)N[C@@H](CC(C)C)C(=O)N[C@@H](Cc1cnc[nH]1)C(=O)N3)NC(=O)[C@H]([C@@H](C)CC)NC(=O)CNC(=O)[C@H](CCCCN)NC(=O)CNC(=O)[C@H]([C@@H](C)O)NC2=O [ATCDLLSGIGVQHSACALHCVFRGNRGGYCTGKGICVCRN]
MIC [1]: 7.9 µM (≈ 32.7 µg/mL) | MIC [2]: ≥ 79 µM | MIC [3]: ≥ 50 µM

MIC [4]: 2 µM (≈ 4.13 µg/mL) | MIC [5]: 16 µM (≈ 33 µg/mL) | MIC [6]: 1 µM (≈ 2.06 µg/mL) | MIC [7]: 2 µM (≈ 4.13 µg/mL) | MIC [8]: 4 µM (≈ 8.25 µg/mL) | MIC [9]: 2 µM (≈ 4.13 µg/mL) | MIC [10]: 4 µM (≈ 8.25 µg/mL) | MIC [11]: 8 µM (≈ 16.5 µg/mL) | MIC [12]: 2 µM (≈ 4.13 µg/mL) | MIC [13]: 8 µM (≈ 16.5 µg/mL) | MIC [14]: 2.83 µM (≈ 5.83 µg/mL) | MIC [15]: 1 µM (≈ 2.06 µg/mL) | MIC [16]: 2 µM (≈ 4.13 µg/mL) | MIC [17]: 16 µM (≈ 33 µg/mL) | MIC [18]: 2 µM (≈ 4.13 µg/mL) | MIC [19]: 4 µM (≈ 8.25 µg/mL) | MIC [20]: 2 µM (≈ 4.13 µg/mL) | MIC [21]: 2.83 µM (≈ 5.83 µg/mL) | MIC [22]: 1 µM (≈ 2.06 µg/mL) | MIC [23]: 2 µM (≈ 4.13 µg/mL) | MIC [24]: 2 µM (≈ 4.13 µg/mL) | MIC [25]: 2 µM (≈ 4.13 µg/mL) | MIC [26]: 16 µM (≈ 33 µg/mL) | MIC [27]: 8 µM (≈ 16.5 µg/mL) | MIC [28]: 2 µM (≈ 4.13 µg/mL)
SMILES: CC[C@H](C)[C@H](NC(=O)[C@H](CCCCN)NC(=O)[C@H](CCCCN)NC(=O)[C@H](Cc1ccccc1)NC(=O)[C@H](CC(C)C)NC(=O)[C@H](CCCCN)NC(=O)[C@H](CCCCN)NC(=O)[C@H](CC(C)C)NC(=O)[C@H](CCCN=C(N)N)NC(=O)[C@H](CCCCN)NC(=O)[C@@H](N)Cc1ccccc1)C(=O)N[C@@H](Cc1c[nH]c2ccccc12)C(=O)N[C@@H](CC(N)=O)C(=O)N[C@@H](Cc1c[nH]c2ccccc12)C(=O)N[C@@H](CCCCN)C(N)=O [FKRLKKLFKKIWNWK]

MIC [29]: 18.3 µM (≈ 32 µg/mL) | MIC [30]: 18.3 µM (≈ 32 µg/mL) | MIC [31]: 2.28 µM (≈ 4 µg/mL) | MIC [32]: 18.3 µM (≈ 32 µg/mL) | MIC [33]: 6.46 µM (≈ 11.3 µg/mL) | MIC [34]: 18.3 µM (≈ 32 µg/mL) | MIC [35]: 0.8 µM (≈ 1.4 µg/mL)
SMILES: CC[C@H](C)[C@H](N)C(=O)N[C@@H](CC(C)C)C(=O)N1CCC[C@H]1C(=O)N[C@@H](Cc1c[nH]c2ccccc12)C(=O)N[C@@H](CCCCN)C(=O)N[C@@H](Cc1c[nH]c2ccccc12)C(=O)N1CCC[C@H]1C(=O)N[C@@H](Cc1c[nH]c2ccccc12)C(=O)N[C@@H](Cc1c[nH]c2ccccc12)C(=O)N1CCC[C@H]1C(=O)N[C@@H](Cc1c[nH]c2ccccc12)C(=O)N[C@@H](CCCN=C(N)N)C(N)=O [ILPWKWPWWPWR]

MIC [29]: 12.5 µM (≈ 31.2 µg/mL) | MIC [36]: 3.12 µM (≈ 7.79 µg/mL) | MIC [37]: ≥ 50 µM | MIC [38]: 3.12 µM (≈ 7.79 µg/mL) | MIC [39]: ≥ 50 µM | MIC [40]: ≥ 50 µM | MIC [41]: 25 µM (≈ 62.4 µg/mL) | MIC [42]: 25 µM (≈ 62.4 µg/mL) | MIC [43]: 12.5 µM (≈ 31.2 µg/mL) | MIC [44]: 8.84 µM (≈ 22.1 µg/mL)
SMILES: CC[C@H](C)[C@H](N)C(=O)N[C@@H](CCCCN)C(=O)N[C@@H](CO)C(=O)N[C@H](C(=O)N[C@@H](C)C(=O)N[C@@H](CO)C(=O)N[C@@H](CCCCN)C(=O)N[C@H](C(=O)N[C@@H](C)C(=O)N[C@@H](CC(N)=O)C(=O)N[C@H](C(=O)N[C@H](C(=O)N[C@@H](CCC(N)=O)C(=O)N[C@@H](CCCCN)C(=O)N[C@@H](CC(C)C)C(=O)N[C@@H](CCCCN)C(=O)N[C@@H](CCCN=C(N)N)C(=O)N[C@@H](CCCCN)C(=O)N[C@@H](C)C(=O)N[C@@H](CCCCN)C(=O)N[C@@H](CC(N)=O)C(=O)N[C@@H](C)C(=O)N[C@H](C(=O)O)C(C)C)C(C)C)[C@@H](C)O)C(C)C)[C@@H](C)CC [IKSIASKVANTVQKLKRKAKNAV]
